Source: PMC3636857, “Specific Activation of the G Protein-coupled Receptor BNGR-A21 by the Neuropeptide Corazonin from the Silkworm, Bombyx mori, Dually Couples to the Gq and Gs Signaling Cascades” (The Journal of Biological Chemistry, 2013)
“Also recorded” adds a separate entry of the source. Numbered stars: 1 amine (or outer) side, 2 acyl side, 3 side chain; on linkers, the order of the positions; unused ones are H or OH. Bridge positions count the residues as written; N and C are the ends. Square brackets hold non-standard residues; d marks the D form. Ends that are not written are not given here. Peptide text beside a SMILES is read from it. X1 = CC(=O)NC(C(=O)OC(C(C)C)C(N[*:1])C(=O)[*:2])C(O)C(C)C; rhodamine red = Rhodamine red fluorescent dye; PhLac = O=C(O)[CH](O)Cc1ccccc1; NMeT = CN[CH](C(=O)O)[CH](C)O; NMeA = CN[CH](C)C(=O)O; NMeDha = C=C(NC)C(=O)O

Columns and labels:
BNGR-A21 (BmCrzR) [1] = type: cell-based, Bombyx mori
BNGR-A21 (BmCrzR) [2] = assay: intracellular calcium measurement (fura-2) in HEK293 cells; type: cell-based, Bombyx mori; details: pretreatment with YM-254890 1 μM, U73122 10 μM, EGTA 5 mM, BAPTA-AM 50 μM or nifedipine 10 μM, corazonin (1 μM with YM-254890)
Method: (§1) The stable FLAG-A21- and BmFlag-A21-expressing HEK293 and Sf21 cells were washed twice with phosphate-buffered saline and resuspended at 5 × 10^6 cells/ml in Hanks' balanced salt solution. The cells were detached by a Nonenzymatic Cell Dissociation Solution (M&C Gene Technology, China) or 0.02% EGTA and then loaded with 3 μM Fura 2-AM (Dojindo Laboratories, Japan) for 30 min at 37 °C. Cells were washed twice in Hanks' solution and then resuspended in Hanks' solution at a concentration of 3 × 10^7 cells/ml. Calcium flux was measured using excitation wavelengths of 340 and 380 nm in a fluorescence spectrometer (Tecan Infinite 200 PRO, Switzerland).
(§2) FIGURE 4. Intracellular Ca^2+ influx. HEK293 (A) and Sf21 (B) cells, respectively, transfected with FLAG-A21 and BmFlag-A21 were measured in response to different concentrations of corazonin peptide using the fluorescent Ca^2+ indicator fura-2. C, effect of pretreatment of the Gq inhibitor on corazonin (1 μM)-mediated Ca^2+ influx in HEK293 cells. D, effects of pretreatment of calcium chelators (EGTA, 5 mM, and BAPTA-AM, 50 μM) and L-calcium channel (nefidipine, 10 μM) inhibitors on corazonin-mediated Ca^2+ influx in HEK293 cells. Effect of pretreatment of PLC inhibitor (U73122, 10 μM) on corazonin-mediated Ca^2+ influx in HEK293 (E) and Sf21 (F) cells. The figures are representative of more than three independent experiments.

BmCrzR (BNGR-A21) [3] = assay: ERK1/2 activation assay in HEK293 cells stably expressing BmCrzR; type: cell-based, Bombyx mori; details: HEK293 cells stably transfected with BmCrzR; 1 h pretreatment (H89 10 μM, Go6983 10 μM, U0126 1 μM), then corazonin 1 nM, 5 min
BNGR-A21 (BmCrzR) [4] = assay: intracellular calcium measurement (fura-2) in Sf21 cells; type: cell-based, Bombyx mori; details: pretreatment with U73122 10 μM
Method: as §1, §2

[5] = biological target: Bombyx neuropeptide G protein-coupled receptor A21 (BNGR-A21), N-terminal FLAG tag (Bombyx mori) (UniProt B3XXN4); assay: fluorescent ligand competition binding on whole cells; HEK293 cells stably expressing FLAG-A21 in poly-D-lysine-coated 96-well plates; labeled ligand (Rho-[Lys^4]BmCrz) with buffer or unlabeled ligand in PBS with 0.2% BSA, room temperature 90 min, washed with ice-cold PBS with 0.1% BSA; fluorescence intensity as percentage of total binding
[6] = biological target: Bombyx neuropeptide G protein-coupled receptor A21 (BNGR-A21), N-terminal FLAG tag (Bombyx mori) (UniProt B3XXN4)
[7] = biological target: Bombyx neuropeptide G protein-coupled receptor A21 (BNGR-A21), N-terminal FLAG tag (Bombyx mori) (UniProt B3XXN4); remark: listed apart in the source
BmCrzR (BNGR-A21) [8] = assay: CRE-driven luciferase assay of rhodamine-labeled corazonin; type: cell-based, Bombyx mori; details: Fig. 5A; CRE-driven luciferase system; rhodamine red-labeled peptide; read-out: activation of BmCrzR (CRE-driven luciferase), EC50
Method: After seeding in a 48-well plate overnight, HEK293 or Sf21 cells transiently or stably cotransfected with BNGR-A21 and pCRE-Luc were grown to 90–95% confluence, stimulated with the corazonin peptides in DMEM without FBS, and incubated for 4–6 h at 37 °C. Luciferase activity was detected by a firefly luciferase assay kit (KenReal, Shanghai, China). The cAMP concentration was assessed using a commercially available cAMP detection kit (R&D Systems).
All results are expressed as the mean ± S.E. Data were analyzed using nonlinear curve fitting (GraphPad Prism version 5.0) to obtain EC50 values. Statistical significance was determined using Student's t test. Probability values that were less than or equal to 0.05 were considered significant.
FIGURE 5. Direct interaction of BNGR-A21 with corazonin. A, rhodamine red-labeled [Lys^4]corazonin activity was assayed using the CRE-driven luciferase system. B, binding of Rho-[Lys^4]BmCrz to BNGR-A21 expressed in HEK293 cells was measured in the presence of different concentrations of unlabeled peptides or in the absence of unlabeled peptides (total binding). The extent of binding was determined by fluorescence intensity and is presented as a percentage of the total binding. The results represent the mean ± S.D. (n = 3).

[9] = biological target: Bombyx neuropeptide G protein-coupled receptor A21 (BNGR-A21), N-terminal FLAG tag (Bombyx mori) (UniProt B3XXN4); remark: listed apart in the source
CrzR in A. gambiae = test system: CrzR in A. gambiae; design: method as in PMID 16616003; details: cited from earlier work

Chain of Bombyx neuropeptide G protein-coupled receptor A21 (BNGR-A21), N-terminal FLAG tag (Bombyx mori) (B3XXN4 entry or part of it): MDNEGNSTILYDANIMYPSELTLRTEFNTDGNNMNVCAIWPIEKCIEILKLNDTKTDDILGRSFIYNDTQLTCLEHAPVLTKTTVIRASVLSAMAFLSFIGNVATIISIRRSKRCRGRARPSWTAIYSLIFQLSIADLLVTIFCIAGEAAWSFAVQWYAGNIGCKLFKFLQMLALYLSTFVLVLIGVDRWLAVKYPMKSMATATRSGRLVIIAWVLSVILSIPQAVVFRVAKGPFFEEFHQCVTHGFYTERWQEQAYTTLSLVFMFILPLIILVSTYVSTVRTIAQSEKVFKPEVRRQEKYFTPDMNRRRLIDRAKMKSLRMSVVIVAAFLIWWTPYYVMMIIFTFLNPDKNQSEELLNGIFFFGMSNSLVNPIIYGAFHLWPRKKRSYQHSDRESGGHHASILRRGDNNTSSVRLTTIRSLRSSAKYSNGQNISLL

CC(=O)OCOC(=O)CN(CC(=O)OCOC(C)=O)c1ccccc1OCCOc1ccccc1N(CC(=O)OCOC(C)=O)CC(=O)OCOC(C)=O [BAPTA-AM]
inhibition of BmCrz-induced luciferase activity (BNGR-A21 (BmCrzR) [1]): significantly inhibited
effect of inhibitor on corazonin-mediated Ca^2+ mobilization (BNGR-A21 (BmCrzR) [2]): sensitive; also recorded: partially impaired

O=C(O)CN(CCOCCOCCN(CC(=O)O)CC(=O)O)CC(=O)O [EGTA]
inhibition of BmCrz-induced luciferase activity (BNGR-A21 (BmCrzR) [1]): significantly inhibited
effect of inhibitor on corazonin-mediated Ca^2+ mobilization (BNGR-A21 (BmCrzR) [2]): sensitive; also recorded: partially impaired

COc1ccc2c(c1)c(C1=C(c3c[nH]c4ccccc34)C(=O)NC1=O)cn2CCCN(C)C [Go6983]
block of BmCrzR-mediated activation of ERK1/2 (BmCrzR (BNGR-A21) [3]): significantly blocked; also recorded: significantly inhibited
inhibition of BmCrz-induced luciferase activity (BNGR-A21 (BmCrzR) [1]): significantly inhibited

O=S(=O)(NCCNC/C=C/c1ccc(Br)cc1)c1cccc2cnccc12 [H89]
block of BmCrzR-mediated activation of ERK1/2 (BmCrzR (BNGR-A21) [3]): significantly blocked; also recorded: significantly inhibited
inhibition of BmCrz-induced luciferase activity (BNGR-A21 (BmCrzR) [1]): significantly inhibited; also recorded: sensitive

N#CC(=C(/N)Sc1ccccc1N)/C(C#N)=C(/N)Sc1ccccc1N [U0126]
block of BmCrzR-mediated activation of ERK1/2 (BmCrzR (BNGR-A21) [3]): significantly blocked; also recorded: significantly inhibited

COc1ccc2c(c1)CC[C@@H]1[C@@H]2CC[C@]2(C)[C@@H](NCCCCCCN3C(=O)C=CC3=O)CC[C@@H]12 [U73122]
effect of inhibitor on corazonin-mediated Ca^2+ mobilization (BNGR-A21 (BmCrzR) [4]): sensitive
inhibition of BmCrz-induced luciferase activity (BNGR-A21 (BmCrzR) [1]): significantly inhibited
effect of inhibitor on corazonin-mediated Ca^2+ mobilization (BNGR-A21 (BmCrzR) [2]): sensitive; also recorded: significantly blocked

C=C1C(=O)NC(C)C(=O)N(C)C(C)C(=O)NC(C(OC(=O)C(NC(C)=O)C(O)C(C)C)C(C)C)C(=O)N(C)C(C(C)OC)C(=O)OC(C)C(NC(C)=O)C(=O)OC(Cc2ccccc2)C(=O)N1C (centres unmarked) [YM-254890] (Ac-T[PhLac][NMeDha]A[NMeA][X1][NMeT](Me); ester 1-C; configuration not given here)
inhibition of BmCrz-induced luciferase activity (BNGR-A21 (BmCrzR) [1]): significantly inhibited; also recorded: sensitive
effect of inhibitor on corazonin-mediated Ca^2+ mobilization (BNGR-A21 (BmCrzR) [2]): significant decrease in the intracellular Ca^2+ mobilization; also recorded: significantly blocked

COC(=O)C1=C(C)NC(C)=C(C(=O)OC)C1c1ccccc1[N+](=O)[O-] [nifedipine]
effect of inhibitor on corazonin-mediated Ca^2+ mobilization (BNGR-A21 (BmCrzR) [2]): sensitive; also recorded: partially impaired

Bombyx mori corazonin ([Arg^7]corazonin) (peptide)
IC50 [5]: 0.49 nM
CRE-driven luciferase reporter (cAMP accumulation), dose response to corazonin, HEK293 cells co-transfected with FLAG-A21/CRE-Luc; EC50 [6]: 4.5 nM
CRE-driven luciferase reporter (cAMP accumulation), dose response to corazonin, Sf21 cells co-transfected with FLAG-A21/CRE-Luc; EC50 [6]: 1 nM
ERK1/2 phosphorylation (Western blot), dose response to corazonin, HEK293 cells stably expressing BmCrzR; EC50 [7]: 1.4 nM
ERK1/2 phosphorylation (Western blot), dose response to corazonin, Sf21 cells expressing BmCrzR; EC50 [7]: 4.7 nM

Rho-[Lys^4]BmCrz: Q4K peptide conjugated with rhodamine red at the Lys residue (QTFK(rhodamine red)YSRGWTN; ends and bridges not checked; UniProt Q86N75 20-30, looked up, variant Q4K)
EC50 (BmCrzR (BNGR-A21) [8]): 86.1 nM

Rhodamine red-labeled [Lys^4]BmCrz (peptide)
CRE-driven luciferase reporter; EC50 [9]: 86.1 nM

cholera toxin [CTX]
effect of stimulation with CTX on cellular levels of cAMP (BNGR-A21 (BmCrzR) [1]): remarkable increase in the cellular levels of cAMP

endogenous corazonin: endogenous corazonin of A. gambiae (ref 22) (QTFQYSRGWTN; ends and bridges not checked; UniProt A0NDK8 21-31, looked up)
selectivity of A. gambiae CrzR activation (CrzR in A. gambiae): only be activated by its endogenous corazonin
EC50 (CrzR in A. gambiae; read-out: activation of A. gambiae CrzR (cAMP accumulation), EC50): 4 nM

pertussis toxin [PTX]
effect of pretreatment on corazonin-stimulated cAMP generation (BNGR-A21 (BmCrzR) [1]): no effect on cAMP generation; also recorded: PTX-insensitive
